What was measured:
β-galactosidase [1] = experiment: Labeling of lacZ positive yeast cells; type: cell-based, Yeast strain EG 123; conditions: 200 μM staining solution mixed with equal volume of cells, after 300 μM chloroquine
Description: 2.1 Yeast Strain: Yeast strain EG 123 is transformed with plasmid pLGΔ-312S, which carries the yeast CYC1 promotor region and initiation codon fused in frame with the lacZ gene. The cells are grown in a synthetic medium selecting for plasmid maintenance to a density of about 10^7 cells per mL. Cells are collected by centrifugation and resuspended in Z buffer to obtain a cell suspension. Z buffer contains 0.2% β-mercaptoethanol which improves the permeability of both the yeast cell wall and the plasma membrane. Nontransformed yeast cells are used as the control.
2.2 Staining Solution: The galactosidase substrate (1h) is first dissolved in DMSO to get 10 mM stock solution. This solution is diluted 1:50 with distilled water to obtain a 200 μM staining solution.
2.3 Staining and Examination of Cells: To inhibit endogenous vacuolar galactosidase activity, yeast cells are first preincubated with 300 μM chloroquine for 20 minutes at room temperature, then mixed with an equal volume of the substrate-containing staining solution. Most of the lacZ positive cells become fluorescent within 15 minutes. A crystalline precipitate can be observed in the cells, while the lacZ negative cells remain unstained for at least 2 hours.

β-galactosidase [2] = molecular target: T1, β-galactosidase (Escherichia coli, UniProt P00722); experiment: Labeling of lacZ positive fibroblast cells with a β-galactosidase substrate; type: cell-based
T1 construct: host or cells: CRE BAG 2 cells (NIH/3T3 cells transformed with a retrovirus containing lacZ)
Description: (§1) 1.1 Cell Lines: NIH/3T3 cells (lacZ negative) and CRE BAG 2 cells (3T3 cells transformed with a retrovirus containing the lacZ gene) are employed for cellular assays. Both cell lines can be obtained from American Type Culture Collection Co., Rockville, Md. The cells are grown in a humidified atmosphere of 5% CO2 in Dulbecco's modified Eagle's medium supplemented with 10% calf serum, 50 μg/mL gentamicin, 300 μg/mL L-glutamine and 10 mM HEPES pH 7.4.
1.2 Stock Solution of the Labeling Reagent: The β-galactosidase substrate 1h is dissolved in DMSO to get a 10 mM stock solution.
(§2) 1.3 Working Medium: 100 μL of the dye stock solution is added to 10 mL of fresh culture medium to prepare a "working medium" containing 100 μM of the substrate 1h. This medium is then filter-sterilized by passing through an Acrodisc™ filter (0.45μ pore size).
1.4 Staining and Examination of Cells: Cells grown on coverslips are transferred to the working medium and incubated at 37° C. under normal culture conditions. Cells are examined at the desired time for their fluorescence under a Zeiss microscope equipped with a Hoechst filter set (typically excitation at about 360 nm and emission past 480 nm). […] After 6 hours, the fluorescence intensity of stained CRE BAG 2 cells reaches its highest level.

[3] = tested on: NIH/3T3 cells and CRE BAG 2 cells; experiment: Cytotoxicity and cellular retention in fibroblast cells; type: cell-based
Description: as §1, §2

[4] = tested on: epidermal growth factor (EGF) receptors; experiment: Detection of a growth factor receptor in A431 cells; type: cell-based, human; conditions: fluorescence microscope; substrate 0.1 mM 15 minutes, or 50 ng/mL direct conjugate
Description: 1 ). Cells. Dish-cultured A431 cells (American Type Culture Collection, Rockville, Md.) are digested with trypsin and transferred to glass cover-slips. The cells are subcultured and stabilized for 24 to 48 hours before use.
2). Staining. The slips are transferred into a staining dish, washed with PBS, rinsed in a 0.5% formaldehyde PBS solution for 15 minutes at room temperature, washed with PBS, then incubated in 50 ng/mL biotinylated epidermal growth factor (biotin-EGF; Molecular Probes, Inc., Eugene, Oreg.) in PBS solution for 30 minutes at room temperature. The slips are washed with PBS buffer, then incubated with 1 μg/mL streptavidin alkaline phosphatase (Molecular Probes, Inc.) in a reaction buffer (0.1M TRIS pH 7.8 containing 0.15M NaCl, 50 mM MgCl2 and 0.1 mM ZnCl2) for 30 minutes at room temperature. The slips are washed with the reaction buffer, then incubated with 0.1 mM of a precipitating alkaline phosphatase substrate in the reaction buffer for 15 minutes at room temperature. The substrate solution is filtered through a 0.2 μM filter (Millipore, Bedford, Mass.) before use.
3). Detection. The slips are washed with PBS then examined under a Zeiss fluorescence microscope equipped with suitable filters (typically excitation at about 360 nm and emission past 480 nm). […] Alternatively the fluorescent labeled cells can be detected and the intensity quantitated by flow cytometry.

T1 sequence (P00722 whole entry): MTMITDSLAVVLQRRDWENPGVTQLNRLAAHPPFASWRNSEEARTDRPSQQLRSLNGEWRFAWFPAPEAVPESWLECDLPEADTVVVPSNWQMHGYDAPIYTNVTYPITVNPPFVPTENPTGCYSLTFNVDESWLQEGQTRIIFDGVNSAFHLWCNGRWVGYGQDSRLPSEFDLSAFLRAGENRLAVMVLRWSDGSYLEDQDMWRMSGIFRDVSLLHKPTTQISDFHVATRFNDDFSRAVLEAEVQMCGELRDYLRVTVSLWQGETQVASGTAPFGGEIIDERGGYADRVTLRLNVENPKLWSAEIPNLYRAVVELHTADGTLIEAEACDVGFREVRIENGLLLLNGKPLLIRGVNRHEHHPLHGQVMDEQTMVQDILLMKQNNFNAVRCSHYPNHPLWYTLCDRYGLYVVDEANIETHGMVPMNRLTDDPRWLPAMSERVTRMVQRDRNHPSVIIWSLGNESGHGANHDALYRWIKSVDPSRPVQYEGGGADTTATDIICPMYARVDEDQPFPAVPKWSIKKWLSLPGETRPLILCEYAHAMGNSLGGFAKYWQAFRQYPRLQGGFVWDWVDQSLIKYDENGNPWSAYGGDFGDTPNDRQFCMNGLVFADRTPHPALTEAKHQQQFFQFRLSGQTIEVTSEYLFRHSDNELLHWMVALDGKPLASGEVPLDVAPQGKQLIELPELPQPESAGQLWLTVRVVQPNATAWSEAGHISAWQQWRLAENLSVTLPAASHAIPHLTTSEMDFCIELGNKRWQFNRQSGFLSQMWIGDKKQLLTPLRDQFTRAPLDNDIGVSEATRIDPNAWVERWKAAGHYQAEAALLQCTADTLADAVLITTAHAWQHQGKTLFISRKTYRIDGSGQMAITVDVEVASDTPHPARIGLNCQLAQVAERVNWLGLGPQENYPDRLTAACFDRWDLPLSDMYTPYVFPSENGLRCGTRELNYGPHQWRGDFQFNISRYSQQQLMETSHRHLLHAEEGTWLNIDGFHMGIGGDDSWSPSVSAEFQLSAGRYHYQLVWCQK

Molecule | time for which lacZ negative yeast cells remain unstained (β-galactosidase [1]) | time within which most lacZ positive yeast cells become fluorescent (β-galactosidase [1]) [min] | time at which fluorescence intensity of stained CRE BAG 2 cells reaches its highest level (β-galactosidase [2]; 100 μM working medium) [h] | fluorescent staining of 3T3 cells (lacZ negative) (β-galactosidase [2]; 100 μM, 60 minutes, 37° C.) | fluorescent staining of lacZ positive CRE BAG 2 cells (β-galactosidase [2]; 100 μM, 60 minutes, 37° C.) | cytotoxicity [3] | cell morphology and population doubling time ([3]; 100 μM working medium, 24 hours) | fluorescence of stained fixed A431 cells [4]
O=c1[nH]c(-c2ccccc2O[C@@H]2O[C@H](CO)[C@H](O)[C@H](O)[C@H]2O)nc2ccccc12 [1h] | at least 2 hours | ≤ 15 | 6 | not in the 3T3 cells | fluorescent spots can be observed in the cytoplasmic area | no cytotoxicity | look morphologically normal and have the same population doubling time as the control | –
fluorescein EGF: direct fluorescent conjugate of epidermal growth factor (NSDSECPLSHDGYCLHDGVCMYIEALDKYACNCVVGYIGERCQYRDLKWWELR; Epidermal growth factor fluorescein label; UniProt P01133 971-1023, looked up) | – | – | – | – | – | – | – | extremely low visibility and very low photostability

Reference: patent publication US5443986A, “Enzymatic analysis using substrates that yield fluorescent precipitates” (Molecular Probes, Inc., priority 1993, dated 1995)
